Assay results as given in PubChem BioAssay (NCI).
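Assay format: 96-well plates, 48-hour exposure. The concentration for 50% growth inhibition is given as GI50. At the TGI there is no net growth.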

Columns and labels:
Experiment in all cases: DTP human tumour cell line panel, 48 h
HOP-62 NSCLC = system: HOP-62 NSCLC
SK-MEL-2 melanoma = system: SK-MEL-2 melanoma
NCI/ADR-RES ovarian = system: NCI/ADR-RES ovarian
SF-268 CNS = system: SF-268 CNS
MDA-MB-435 = system: MDA-MB-435
CCRF-CEM leukemia = system: CCRF-CEM leukemia
MALME-3M melanoma = system: MALME-3M melanoma
RXF 393 renal = system: RXF 393 renal
SNB-75 CNS = system: SNB-75 CNS
786-0 renal = system: 786-0 renal
M14 melanoma = system: M14 melanoma
IGROV1 ovarian = system: IGROV1 ovarian
NCI-H226 lung = system: NCI-H226 lung
OVCAR-8 ovarian = system: OVCAR-8 ovarian
A498 renal = system: A498 renal
SF-295 CNS = system: SF-295 CNS
K-562 leukemia = system: K-562 leukemia
LOX IMVI melanoma = system: LOX IMVI melanoma
HT29 colon = system: HT29 colon
ACHN renal = system: ACHN renal
MCF7 breast = system: MCF7 breast
SK-OV-3 ovarian = system: SK-OV-3 ovarian
HCT-116 colon = system: HCT-116 colon
HL-60(TB) leukemia = system: HL-60(TB) leukemia
NCI-H460 lung = system: NCI-H460 lung
TK-10 renal = system: TK-10 renal
HS 578T breast = system: HS 578T breast
EKVX NSCLC = system: EKVX NSCLC
RPMI-8226 leukemia = system: RPMI-8226 leukemia
SW-620 colon = system: SW-620 colon
KM12 colon = system: KM12 colon
OVCAR-3 ovarian = system: OVCAR-3 ovarian
UACC-257 melanoma = system: UACC-257 melanoma
HOP-92 NSCLC = system: HOP-92 NSCLC
UO-31 renal = system: UO-31 renal
T-47D breast = system: T-47D breast
SF-539 CNS = system: SF-539 CNS
MDA-N = system: MDA-N
SK-MEL-5 melanoma = system: SK-MEL-5 melanoma
PC-3 prostate = system: PC-3 prostate
HCC-2998 colon = system: HCC-2998 colon
A549 NSCLC = system: A549 NSCLC
SNB-19 CNS = system: SNB-19 CNS
SN12C renal = system: SN12C renal
NCI-H23 lung = system: NCI-H23 lung
MDA-MB-231 breast = system: MDA-MB-231 breast
SK-MEL-28 melanoma = system: SK-MEL-28 melanoma
OVCAR-5 ovarian = system: OVCAR-5 ovarian
UACC-62 melanoma = system: UACC-62 melanoma
SR leukemia = system: SR leukemia
U251 CNS = system: U251 CNS
NCI-H522 lung = system: NCI-H522 lung
OVCAR-4 ovarian = system: OVCAR-4 ovarian
COLO 205 colon = system: COLO 205 colon
BT-549 breast = system: BT-549 breast
CAKI-1 renal = system: CAKI-1 renal
HCT-15 colon = system: HCT-15 colon
MOLT-4 leukemia = system: MOLT-4 leukemia
DU-145 prostate = system: DU-145 prostate

O=C(O)c1ccc(Cc2ccccc2C(=O)O)cc1
TGI (HOP-62 NSCLC): > 100 µM
TGI (SK-MEL-2 melanoma): > 100 µM
TGI (NCI/ADR-RES ovarian): > 100 µM
TGI (SF-268 CNS): > 100 µM
TGI (MDA-MB-435): > 100 µM
TGI (CCRF-CEM leukemia): > 100 µM
TGI (MALME-3M melanoma): > 100 µM
TGI (RXF 393 renal): > 100 µM
TGI (SNB-75 CNS): > 100 µM
TGI (786-0 renal): > 100 µM
TGI (M14 melanoma): > 100 µM
TGI (IGROV1 ovarian): > 100 µM
TGI (NCI-H226 lung): > 100 µM
TGI (OVCAR-8 ovarian): > 100 µM
TGI (A498 renal): > 100 µM
TGI (SF-295 CNS): > 100 µM
TGI (K-562 leukemia): > 100 µM
TGI (LOX IMVI melanoma): > 100 µM
TGI (HT29 colon): > 100 µM
TGI (ACHN renal): > 100 µM
TGI (MCF7 breast): > 100 µM
TGI (SK-OV-3 ovarian): > 100 µM
TGI (HCT-116 colon): > 100 µM
TGI (HL-60(TB) leukemia): > 100 µM
TGI (NCI-H460 lung): > 100 µM
TGI (TK-10 renal): > 100 µM
TGI (HS 578T breast): > 100 µM
TGI (EKVX NSCLC): > 100 µM
TGI (RPMI-8226 leukemia): > 100 µM
TGI (SW-620 colon): > 100 µM
TGI (KM12 colon): > 100 µM
TGI (OVCAR-3 ovarian): > 100 µM
TGI (UACC-257 melanoma): > 100 µM
TGI (HOP-92 NSCLC): > 100 µM
TGI (UO-31 renal): > 100 µM
TGI (T-47D breast): > 100 µM
TGI (SF-539 CNS): > 100 µM
TGI (MDA-N): > 100 µM
TGI (SK-MEL-5 melanoma): > 100 µM
TGI (PC-3 prostate): > 100 µM
TGI (HCC-2998 colon): > 100 µM
TGI (A549 NSCLC): > 100 µM
TGI (SNB-19 CNS): > 100 µM
TGI (SN12C renal): > 100 µM
TGI (NCI-H23 lung): > 100 µM
TGI (MDA-MB-231 breast): > 100 µM
TGI (SK-MEL-28 melanoma): > 100 µM
TGI (OVCAR-5 ovarian): > 100 µM
TGI (UACC-62 melanoma): > 100 µM
TGI (SR leukemia): > 100 µM
TGI (U251 CNS): > 100 µM
TGI (NCI-H522 lung): > 100 µM
TGI (OVCAR-4 ovarian): > 100 µM
TGI (COLO 205 colon): > 100 µM
TGI (BT-549 breast): > 100 µM
TGI (CAKI-1 renal): > 100 µM
TGI (HCT-15 colon): > 100 µM

COc1ccc(-c2cc(=O)c3cc(C)cnc3[nH]2)cc1
TGI (HOP-62 NSCLC): > 100 µM
TGI (SK-MEL-2 melanoma): > 100 µM
TGI (NCI/ADR-RES ovarian): 23.5 µM
TGI (SF-268 CNS): > 100 µM
TGI (MDA-MB-435): 5.53 µM
TGI (MALME-3M melanoma): > 100 µM
TGI (RXF 393 renal): > 100 µM
GI50 (786-0 renal): 5.1 µM
TGI (786-0 renal): > 100 µM
TGI (M14 melanoma): 45.1 µM
TGI (IGROV1 ovarian): > 100 µM
TGI (NCI-H226 lung): 51.7 µM
TGI (OVCAR-8 ovarian): > 100 µM
TGI (A498 renal): 62.6 µM
GI50 (SF-295 CNS): 5.29 µM
TGI (SF-295 CNS): > 100 µM
TGI (K-562 leukemia): 8.29 µM
TGI (LOX IMVI melanoma): > 100 µM
TGI (HT29 colon): 5.9 µM
TGI (ACHN renal): > 100 µM
TGI (MCF7 breast): > 100 µM
TGI (SK-OV-3 ovarian): > 100 µM
GI50 (HCT-116 colon): 4.15 µM
TGI (HCT-116 colon): > 100 µM
GI50 (HL-60(TB) leukemia): 2.27 µM
TGI (HL-60(TB) leukemia): 5.64 µM
GI50 (NCI-H460 lung): 4.08 µM
TGI (NCI-H460 lung): 36.5 µM
TGI (TK-10 renal): > 100 µM
TGI (HS 578T breast): > 100 µM
TGI (EKVX NSCLC): > 100 µM
TGI (RPMI-8226 leukemia): 45 µM
TGI (SW-620 colon): > 100 µM
TGI (KM12 colon): > 100 µM
TGI (UACC-257 melanoma): > 100 µM
TGI (HOP-92 NSCLC): > 100 µM
TGI (UO-31 renal): > 100 µM
TGI (T-47D breast): > 100 µM
TGI (MOLT-4 leukemia): 40.9 µM
TGI (SF-539 CNS): > 100 µM
GI50 (MDA-N): 1.69 µM
TGI (MDA-N): 4.98 µM
GI50 (SK-MEL-5 melanoma): 3.73 µM
TGI (SK-MEL-5 melanoma): > 100 µM
GI50 (PC-3 prostate): 5.32 µM
TGI (PC-3 prostate): > 100 µM
TGI (HCC-2998 colon): 85 µM
TGI (A549 NSCLC): > 100 µM
TGI (SNB-19 CNS): > 100 µM
TGI (SN12C renal): > 100 µM
TGI (NCI-H23 lung): > 100 µM
TGI (MDA-MB-231 breast): > 100 µM
TGI (SK-MEL-28 melanoma): > 100 µM
TGI (OVCAR-5 ovarian): > 100 µM
TGI (UACC-62 melanoma): > 100 µM
GI50 (U251 CNS): 4.2 µM
TGI (U251 CNS): > 100 µM
TGI (NCI-H522 lung): 30.7 µM
TGI (OVCAR-4 ovarian): > 100 µM
TGI (COLO 205 colon): 23 µM
TGI (BT-549 breast): 15 µM
TGI (DU-145 prostate): > 100 µM
TGI (CAKI-1 renal): > 100 µM
TGI (HCT-15 colon): 19.8 µM
